The text below walks through data of patent US20250320193A1, “OXOISOINDOLINYL SUBSTITUTED PIPERIDINEDIONE DERIVATIVE AND USE THEREOF” (GLUETACS THERAPEUTICS (SHANGHAI) CO., LTD., priority 2022, published 2025).

Test [1] concerns the target human Cereblon WT GST-tagged protein (Homo sapiens (Human), UniProt Q96SW2). Briefly: CRBN-binding affinity, HTRF (CEREBLON BINDING kit, CISBIO). The note with it: HTRF inhibitory activity. In short, it runs like this:
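Compounds were mixed with GST-tagged human Cereblon WT protein, then with Thalidomide-Red tracer and GST Eu antibody, and binding was read by HTRF. Inhibition rate was calculated from 620 nm emission relative to blank control wells (no protein) and solvent control wells.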

For a further test, the target named is IKZF1 (Homo sapiens (Human), UniProt Q13422+Q96SW2). Briefly: Western blot, substrate protein expression in hPBMC: IKZF1. Type of test: cell-based. The note with it: hPBMC, compound 500 nM, 24 hours, Western blot. The gist of the method: (§1)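 hPBMC, 1×10^6 cells/mL, 24 h compound exposure; RIPA lysis, BCA protein assay, SDS-PAGE, NC membrane immunoblot. Densitometry vs internal control → % protein remaining; degradation % = 100% − remaining; DC50 = conc. at 50% of DMSO band signal.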

In another test the target is IKZF3 (Homo sapiens (Human), UniProt Q96SW2+Q9UKT9). The experiment in a line: Western blot, substrate protein expression in hPBMC: IKZF3. Type of test: cell-based. The note with it: hPBMC, compound 500 nM, 24 hours, Western blot. In short, it runs like this: as §1
A further test addresses GSPT1 (Homo sapiens (Human), UniProt P15170+Q96SW2). The experiment in a line: Western blot, substrate protein expression in hPBMC: GSPT1. Type of test: cell-based. The note with it: hPBMC, compound 500 nM, 24 hours, Western blot. In short, it runs like this:
as §1

The subject of test [2] is CAL-62 (human thyroid carcinoma cells). Briefly: Tumor cell proliferation inhibition, CCK-8. Type of test: cell-based. The note with it: CAL-62 cells, CCK-8, read-out: inhibitory activity (IC50, nM) CAL-62. The gist of the method: (§2)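 CCK-8 viability read-out after compound exposure; IC50 fitted from growth inhibition. Cells grown at 37° C, 5% CO2, STR-verified and mycoplasma-negative; dosed 24 h post-seeding with 10-point, 5-fold dilutions, highest 10 μM.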

In test [3] the test system is CCRF-CEM (human acute lymphoblastic leukemia T-cells). Briefly: Tumor cell proliferation inhibition, CCK-8. The note with it: CCRF-CEM cells, CCK-8, read-out: inhibitory activity (IC50, nM) CCRF-CEM. Type of test: cell-based. In short, it runs like this:
as §2

Test [4] concerns H146 cells (human small cell lung carcinoma cells). The experiment in a line: Tumor cell proliferation inhibition, CCK-8. Type of test: cell-based. The note with it: NCI-H146, H146 cells, CCK-8, read-out: inhibitory activity (IC50, nM) H146. The gist of the method: as §2
Test [5] deals with Jurkat cells (human T-cell leukemia cells). Briefly: Tumor cell proliferation inhibition, CCK-8. Type of test: cell-based. The note with it: Jurkat cells, CCK-8, read-out: inhibitory activity (IC50, nM) Jurkat. In short, it runs like this: as §2
The subject of test [6] is Kasumi-1 (human acute myeloid leukemia cells). Briefly: Tumor cell proliferation inhibition, CCK-8. Type of test: cell-based. The note with it: Kasumi-1 cells, CCK-8, read-out: inhibitory activity (IC50, nM) Kasumi-1. In short, it runs like this:
as §2

The subject of test [7] is MDA-MB-231 cells (human breast adenocarcinoma cells). Briefly: Tumor cell proliferation inhibition, CCK-8. Type of test: cell-based. The note with it: MDA-MB-231 cells, CCK-8, read-out: inhibitory activity (IC50, nM) MDA-MB-231. In short, it runs like this: as §2
For test [8], the system named is MM.1R cells (dexamethasone-resistant human multiple myeloma cells). Briefly: Tumor cell proliferation inhibition, CCK-8. In kind it is cell-based. The note with it: MM.1R cells, CCK-8, read-out: inhibitory activity (IC50, nM) MM.1R. In short, it runs like this:
as §2

In test [9] the test system is MM.1S cells (human multiple myeloma cells). The experiment in a line: Tumor cell proliferation inhibition, CCK-8. In kind it is cell-based. The note with it: MM1.S, MM.1S cells, CCK-8, read-out: inhibitory activity (IC50, nM) MM.1S. The gist of the method:
as §2

For test [10], the system named is TMD8 cells (human diffuse large B-cell lymphoma cells). The experiment in a line: Tumor cell proliferation inhibition, CCK-8. The note with it: TMD8 cells, CCK-8, read-out: inhibitory activity (IC50, nM) TMD8. In kind it is cell-based. The gist of the method:
as §2

Sequence of IKZF3 (Q9UKT9 whole entry): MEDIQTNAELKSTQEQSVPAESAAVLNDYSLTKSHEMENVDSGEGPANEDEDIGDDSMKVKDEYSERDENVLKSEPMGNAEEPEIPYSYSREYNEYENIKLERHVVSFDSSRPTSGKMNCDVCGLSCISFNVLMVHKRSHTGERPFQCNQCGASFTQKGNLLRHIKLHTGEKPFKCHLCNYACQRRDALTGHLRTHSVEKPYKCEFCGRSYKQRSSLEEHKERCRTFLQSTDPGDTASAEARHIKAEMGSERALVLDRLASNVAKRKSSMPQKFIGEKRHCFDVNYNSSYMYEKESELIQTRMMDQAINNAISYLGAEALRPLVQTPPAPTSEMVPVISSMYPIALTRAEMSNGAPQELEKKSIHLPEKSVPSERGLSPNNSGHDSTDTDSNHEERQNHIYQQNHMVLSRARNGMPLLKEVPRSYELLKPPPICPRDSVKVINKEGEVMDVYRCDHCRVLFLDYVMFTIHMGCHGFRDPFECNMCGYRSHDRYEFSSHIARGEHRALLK
Sequence of IKZF3 (Q96SW2 whole entry): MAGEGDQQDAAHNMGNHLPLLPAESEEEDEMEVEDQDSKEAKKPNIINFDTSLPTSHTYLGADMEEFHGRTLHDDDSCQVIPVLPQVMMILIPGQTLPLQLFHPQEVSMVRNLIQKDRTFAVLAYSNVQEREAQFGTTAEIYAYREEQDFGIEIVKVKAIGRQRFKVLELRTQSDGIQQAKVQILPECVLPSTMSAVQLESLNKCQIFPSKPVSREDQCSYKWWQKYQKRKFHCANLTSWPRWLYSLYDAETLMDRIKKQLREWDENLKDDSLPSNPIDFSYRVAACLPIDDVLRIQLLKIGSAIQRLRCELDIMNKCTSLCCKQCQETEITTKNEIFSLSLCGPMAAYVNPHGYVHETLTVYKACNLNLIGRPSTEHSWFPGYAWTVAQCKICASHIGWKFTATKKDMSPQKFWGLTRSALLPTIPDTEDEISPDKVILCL
Sequence of IKZF3 (Q16531 whole entry partner): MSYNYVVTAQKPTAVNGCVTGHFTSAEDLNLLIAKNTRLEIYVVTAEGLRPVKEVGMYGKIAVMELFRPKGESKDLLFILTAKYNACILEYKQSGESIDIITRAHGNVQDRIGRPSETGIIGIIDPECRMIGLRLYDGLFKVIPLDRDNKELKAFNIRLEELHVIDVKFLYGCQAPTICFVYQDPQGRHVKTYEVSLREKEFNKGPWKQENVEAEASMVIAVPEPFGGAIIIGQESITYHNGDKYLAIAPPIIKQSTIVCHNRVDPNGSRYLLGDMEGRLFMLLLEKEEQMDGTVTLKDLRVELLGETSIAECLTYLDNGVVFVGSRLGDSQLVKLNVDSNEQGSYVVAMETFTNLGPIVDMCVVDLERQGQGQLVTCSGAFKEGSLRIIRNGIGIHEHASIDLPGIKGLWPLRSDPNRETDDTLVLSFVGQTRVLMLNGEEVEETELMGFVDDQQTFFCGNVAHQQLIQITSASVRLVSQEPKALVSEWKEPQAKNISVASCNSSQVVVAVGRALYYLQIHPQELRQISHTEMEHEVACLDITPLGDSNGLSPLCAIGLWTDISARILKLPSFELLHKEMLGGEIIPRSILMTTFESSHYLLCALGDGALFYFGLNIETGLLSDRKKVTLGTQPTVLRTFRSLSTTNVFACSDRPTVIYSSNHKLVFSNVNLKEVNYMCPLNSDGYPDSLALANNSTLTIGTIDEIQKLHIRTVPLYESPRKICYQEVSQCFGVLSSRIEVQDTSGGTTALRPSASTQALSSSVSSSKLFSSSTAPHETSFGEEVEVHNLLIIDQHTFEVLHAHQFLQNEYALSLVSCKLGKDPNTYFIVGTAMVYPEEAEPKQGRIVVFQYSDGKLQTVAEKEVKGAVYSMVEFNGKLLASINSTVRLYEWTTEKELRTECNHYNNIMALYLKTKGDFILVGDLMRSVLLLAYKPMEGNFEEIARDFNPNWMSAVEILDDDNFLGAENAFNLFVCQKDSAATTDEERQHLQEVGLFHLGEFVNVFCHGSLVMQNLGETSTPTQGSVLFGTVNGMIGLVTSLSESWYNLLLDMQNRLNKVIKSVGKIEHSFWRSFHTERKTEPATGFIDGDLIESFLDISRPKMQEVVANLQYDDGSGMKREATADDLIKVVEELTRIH
Sequence of IKZF1 (Q13422 whole entry): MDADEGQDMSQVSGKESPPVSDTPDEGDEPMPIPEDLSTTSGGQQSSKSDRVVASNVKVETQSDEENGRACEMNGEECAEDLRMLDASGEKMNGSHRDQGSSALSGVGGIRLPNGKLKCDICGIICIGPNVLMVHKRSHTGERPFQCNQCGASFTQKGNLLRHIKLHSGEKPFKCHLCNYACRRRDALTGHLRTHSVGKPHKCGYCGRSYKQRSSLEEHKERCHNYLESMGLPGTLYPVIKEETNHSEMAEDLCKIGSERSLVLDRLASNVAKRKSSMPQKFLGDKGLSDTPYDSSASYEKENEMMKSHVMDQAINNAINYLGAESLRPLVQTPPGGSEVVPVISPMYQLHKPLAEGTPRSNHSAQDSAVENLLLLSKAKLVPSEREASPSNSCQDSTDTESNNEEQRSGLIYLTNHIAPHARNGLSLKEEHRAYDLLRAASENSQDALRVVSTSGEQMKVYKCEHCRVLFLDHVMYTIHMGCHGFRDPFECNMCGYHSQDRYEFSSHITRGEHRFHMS
Sequence of IKZF1 (Q96SW2 whole entry): as the sequence (Q96SW2 whole entry) above
Sequence of IKZF1 (Q16531 whole entry partner): as the sequence (Q16531 whole entry partner) above
Sequence of GSPT1 (P15170 whole entry): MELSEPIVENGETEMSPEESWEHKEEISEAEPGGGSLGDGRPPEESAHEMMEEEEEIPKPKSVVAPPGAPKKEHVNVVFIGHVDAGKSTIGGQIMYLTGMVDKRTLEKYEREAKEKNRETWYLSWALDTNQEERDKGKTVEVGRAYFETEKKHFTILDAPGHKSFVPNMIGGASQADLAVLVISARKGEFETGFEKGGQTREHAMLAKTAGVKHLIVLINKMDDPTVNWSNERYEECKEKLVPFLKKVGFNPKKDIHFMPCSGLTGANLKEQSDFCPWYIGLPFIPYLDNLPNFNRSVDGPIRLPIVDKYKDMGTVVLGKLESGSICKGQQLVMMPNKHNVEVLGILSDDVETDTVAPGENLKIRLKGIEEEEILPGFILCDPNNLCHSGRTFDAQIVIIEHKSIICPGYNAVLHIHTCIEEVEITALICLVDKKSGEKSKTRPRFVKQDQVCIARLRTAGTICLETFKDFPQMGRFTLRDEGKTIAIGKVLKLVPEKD
Sequence of GSPT1 (Q96SW2 whole entry): as the sequence (Q96SW2 whole entry) above
Sequence of GSPT1 (Q16531 whole entry partner): as the sequence (Q16531 whole entry partner) above
Sequence of human Cereblon WT GST-tagged protein (Q96SW2 whole entry): as the sequence (Q96SW2 whole entry) above

In the case of `O=C1CCC(N2Cc3cc(CN4CCN(C(c5cccc(F)c5)c5cccc(F)c5)CC4)c(F)cc3C2=O)C(=O)N1` (stereo not drawn) [GT-03701, 3-(5-((4-(bis(3-fluorophenyl)methyl)piperazin-1-yl)methyl)-6-fluoro-1-oxoisoindolin-2-yl)piperidine-2,6-dione], the IC50 in test [1] fell in the range of 500 to 1000 nM; in test [2], 1 to 10 nM; in test [3], 1 to 10 nM; in test [4] it was 50 to 100 nM; in [5] it was 10 to 50 nM; in test [6], 10 to 50 nM. In addition, the IC50 lay in the range of 10 to 50 nM in [7], 1 to 10 nM in [8], 1 to 10 nM in test [9] and 100 to 500 nM in test [10]. Also, at IKZF1, the “substrate protein remaining % IKZF1” value is “A (A represents 0% ≤ substrate protein remaining % ≤ 50%)”. In addition, at IKZF3, the “substrate protein remaining % IKZF3” value was “A (A represents 0% ≤ substrate protein remaining % ≤ 50%)”. At GSPT1, the “substrate protein remaining % GSPT1” value is “A (A represents 0% ≤ substrate protein remaining % ≤ 50%)”.
Take `O=C1CCC(N2Cc3cc(CN4CCN(C(c5cccc(F)c5)c5cccc(F)c5)CC4)ccc3C2=O)C(=O)N1` (stereo not drawn) [GT-03702, 3-(5-((4-(bis(3-fluorophenyl)methyl)piperazin-1-yl)methyl)-1-oxoisoindolin-2-yl)piperidine-2,6-dione]: the IC50 in test [1] is under 500 nM; in test [2], under 1 nM; in test [3] it was under 1 nM; in test [4], 10 to 50 nM; in test [5], 1 to 10 nM; in test [6] it was 1 to 10 nM. Also, the IC50 in [7] was 1 to 10 nM; in test [8], 1 to 10 nM; in test [9], under 1 nM; in [10] it was 10 to 50 nM. The “substrate protein remaining % IKZF1” value at IKZF1 is reported as “A (A represents 0% ≤ substrate protein remaining % ≤ 50%)”. Further, the “substrate protein remaining % IKZF3” value at IKZF3 is reported as “A (A represents 0% ≤ substrate protein remaining % ≤ 50%)”. Further, at GSPT1, the “substrate protein remaining % GSPT1” value is recorded as “A (A represents 0% ≤ substrate protein remaining % ≤ 50%)”.
For the compound `O=C1CCC(N2Cc3c(ccc(CN4CCN(C(c5cccc(F)c5)c5cccc(F)c5)CC4)c3F)C2=O)C(=O)N1` (stereo not drawn) [GT-03703, 3-(5-((4-(bis(3-fluorophenyl)methyl)piperazin-1-yl)methyl)-4-fluoro-1-oxoisoindolin-2-yl)piperidine-2,6-dione], the IC50 is under 500 nM in test [1]; 1 to 10 nM in [2]; under 1 nM in test [3]; 10 to 50 nM in [4]; 1 to 10 nM in test [5]; 1 to 10 nM in test [6]. Also, the IC50 was in the range of 1 to 10 nM in test [7], 1 to 10 nM in [8], 1 to 10 nM in [9] and 10 to 50 nM in test [10]. Besides, the “substrate protein remaining % IKZF1” value on IKZF1 is recorded as “A (A represents 0% ≤ substrate protein remaining % ≤ 50%)”. At IKZF3, the “substrate protein remaining % IKZF3” value is reported as “A (A represents 0% ≤ substrate protein remaining % ≤ 50%)”. For the same compound, the “substrate protein remaining % GSPT1” value at GSPT1 is “A (A represents 0% ≤ substrate protein remaining % ≤ 50%)”.
With `O=C1CCC(N2Cc3c(ccc(CN4CCN(C(c5ccccc5)c5ccccn5)CC4)c3F)C2=O)C(=O)N1` (stereo not drawn) [GT-03832, 3-(4-fluoro-1-oxo-5-((4-(phenyl(pyridin-2-yl)methyl)piperazin-1-yl)methyl)isoindolin-2-yl)piperidine-2,6-dione], the IC50 was in the range of 500 to 1000 nM in test [1]; 1 to 10 nM in [2]; 1 to 10 nM in [3]; 50 to 100 nM in test [4]; 1 to 10 nM in [5]; 10 to 50 nM in [6]. Besides, the IC50 in test [7] was in the range of 10 to 50 nM; in [8], 1 to 10 nM; in test [9], 1 to 10 nM; in [10] it was 100 to 500 nM. The “substrate protein remaining % IKZF1” value on IKZF1 is “B (B represents substrate protein remaining % > 50%)”. Besides, on IKZF3, the “substrate protein remaining % IKZF3” value was “A (A represents 0% ≤ substrate protein remaining % ≤ 50%)”. For the same compound, the “substrate protein remaining % GSPT1” value on GSPT1 is on record as “A (A represents 0% ≤ substrate protein remaining % ≤ 50%)”.
Turning to `O=C1CCC(N2Cc3cc(CN4CCN(C(c5ccccc5)c5ccccn5)CC4)c(F)cc3C2=O)C(=O)N1` (stereo not drawn) [GT-03833, 3-(6-fluoro-1-oxo-5-((4-(phenyl(pyridin-2-yl)methyl)piperazin-1-yl)methyl)isoindolin-2-yl)piperidine-2,6-dione], the IC50 in test [1] is 1000 to 1900 nM; in test [2], 1 to 10 nM; in test [3], under 1 nM; in test [4] it was 10 to 50 nM; in test [5], 1 to 10 nM; in test [6], 1 to 10 nM. Moreover, the IC50 in test [7] was in the range of 10 to 50 nM; in test [8], 1 to 10 nM; in [9] it was 1 to 10 nM; in test [10], 10 to 50 nM. The “substrate protein remaining % IKZF1” value on IKZF1 is reported as “B (B represents substrate protein remaining % > 50%)”. Moreover, the “substrate protein remaining % IKZF3” value at IKZF3 was “A (A represents 0% ≤ substrate protein remaining % ≤ 50%)”. Further, the “substrate protein remaining % GSPT1” value on GSPT1 is listed as “A (A represents 0% ≤ substrate protein remaining % ≤ 50%)”.
Regarding `O=C1CCC(N2Cc3cc(CN4CCN(C(c5ccccc5)c5ccccn5)CC4)ccc3C2=O)C(=O)N1` (stereo not drawn) [GT-03835, 3-(1-oxo-5-((4-(phenyl(pyridin-2-yl)methyl)piperazin-1-yl)methyl)isoindolin-2-yl)piperidine-2,6-dione], the IC50 in [1] lay within 500 to 1000 nM; in [2], 1 to 10 nM; in test [3], 1 to 10 nM; in test [4], 50 to 100 nM; in test [5] it was 1 to 10 nM; in [6], 1 to 10 nM. Besides, the IC50 fell in the range of 10 to 50 nM in test [7], 1 to 10 nM in test [8], 1 to 10 nM in test [9] and 100 to 500 nM in test [10]. For the same compound, the “substrate protein remaining % IKZF1” value at IKZF1 is “A (A represents 0% ≤ substrate protein remaining % ≤ 50%)”. Moreover, at IKZF3, the “substrate protein remaining % IKZF3” value is “A (A represents 0% ≤ substrate protein remaining % ≤ 50%)”. The “substrate protein remaining % GSPT1” value at GSPT1 is “A (A represents 0% ≤ substrate protein remaining % ≤ 50%)”.
